What was measured:
[1] = molecular target: Activin receptor type-1B (Homo sapiens) (UniProt P36896); test: Inhibition of recombinant human GST-tagged ACVR1B catalytic domain (150 to 505 residues) expressed in baculovirus expression system at 0.1 uM using serine/threonine-16 peptide as substrate incubated for 60 mins by Z'-LYTE assay relative to control
[2] = molecular target: NUAK family SNF1-like kinase 1 (Homo sapiens) (UniProt O60285); test: Inhibition of recombinant full length human His-tagged ARK5 expressed in baculovirus expression system at 0.1 uM using CHKtide peptide as substrate incubated for 60 mins by Adapta assay relative to control
[3] = molecular target: Tyrosine-protein kinase ABL1 (Homo sapiens) (UniProt P00519); test: Inhibition of recombinant full length human His-tagged ABL1 expressed in baculovirus expression system at 0.1 uM using tyrosine-2 peptide as substrate incubated for 60 mins by Z'-LYTE assay relative to control
[4] = molecular target: Cyclin-dependent kinase 5/CDK5 activator 1 (Homo sapiens) (UniProt Q00535+Q15078); test: Inhibition of recombinant full length human GST/His-tagged CDK5/p25 expressed in baculovirus expression system at 0.1 uM using serine/threonine-12 peptide as substrate incubated for 60 mins by Z'-LYTE assay relative to control
[5] = molecular target: Dual specificity protein kinase CLK4 (Homo sapiens) (UniProt Q9HAZ1); test: Inhibition of tracer 236 binding to recombinant full length human GST-tagged CLK4 expressed in baculovirus expression system at 0.1 uM measured after 60 mins by Lanthascreen assay relative to control
[6] = molecular target: Receptor-type tyrosine-protein kinase FLT3 (Homo sapiens) (UniProt P36888); test: Inhibition of recombinant human His-tagged FLT3 catalytic domain (564 to 958 residues) expressed in baculovirus expression system at 0.1 uM using tyrosine-2 peptide as substrate incubated for 60 mins by Z'-LYTE assay relative to control
[7] = molecular target: Vascular endothelial growth factor receptor 3 (Homo sapiens) (UniProt P35916); test: Inhibition of recombinant human GST-tagged FLT4 catalytic domain (800 to 1297 residues) expressed in baculovirus expression system at 0.1 uM using tyrosine-4 peptide as substrate incubated for 60 mins by Z'-LYTE assay relative to control
Sequence of Vascular endothelial growth factor receptor 3 (Homo sapiens) (P35916 whole entry, the tested form may be a part): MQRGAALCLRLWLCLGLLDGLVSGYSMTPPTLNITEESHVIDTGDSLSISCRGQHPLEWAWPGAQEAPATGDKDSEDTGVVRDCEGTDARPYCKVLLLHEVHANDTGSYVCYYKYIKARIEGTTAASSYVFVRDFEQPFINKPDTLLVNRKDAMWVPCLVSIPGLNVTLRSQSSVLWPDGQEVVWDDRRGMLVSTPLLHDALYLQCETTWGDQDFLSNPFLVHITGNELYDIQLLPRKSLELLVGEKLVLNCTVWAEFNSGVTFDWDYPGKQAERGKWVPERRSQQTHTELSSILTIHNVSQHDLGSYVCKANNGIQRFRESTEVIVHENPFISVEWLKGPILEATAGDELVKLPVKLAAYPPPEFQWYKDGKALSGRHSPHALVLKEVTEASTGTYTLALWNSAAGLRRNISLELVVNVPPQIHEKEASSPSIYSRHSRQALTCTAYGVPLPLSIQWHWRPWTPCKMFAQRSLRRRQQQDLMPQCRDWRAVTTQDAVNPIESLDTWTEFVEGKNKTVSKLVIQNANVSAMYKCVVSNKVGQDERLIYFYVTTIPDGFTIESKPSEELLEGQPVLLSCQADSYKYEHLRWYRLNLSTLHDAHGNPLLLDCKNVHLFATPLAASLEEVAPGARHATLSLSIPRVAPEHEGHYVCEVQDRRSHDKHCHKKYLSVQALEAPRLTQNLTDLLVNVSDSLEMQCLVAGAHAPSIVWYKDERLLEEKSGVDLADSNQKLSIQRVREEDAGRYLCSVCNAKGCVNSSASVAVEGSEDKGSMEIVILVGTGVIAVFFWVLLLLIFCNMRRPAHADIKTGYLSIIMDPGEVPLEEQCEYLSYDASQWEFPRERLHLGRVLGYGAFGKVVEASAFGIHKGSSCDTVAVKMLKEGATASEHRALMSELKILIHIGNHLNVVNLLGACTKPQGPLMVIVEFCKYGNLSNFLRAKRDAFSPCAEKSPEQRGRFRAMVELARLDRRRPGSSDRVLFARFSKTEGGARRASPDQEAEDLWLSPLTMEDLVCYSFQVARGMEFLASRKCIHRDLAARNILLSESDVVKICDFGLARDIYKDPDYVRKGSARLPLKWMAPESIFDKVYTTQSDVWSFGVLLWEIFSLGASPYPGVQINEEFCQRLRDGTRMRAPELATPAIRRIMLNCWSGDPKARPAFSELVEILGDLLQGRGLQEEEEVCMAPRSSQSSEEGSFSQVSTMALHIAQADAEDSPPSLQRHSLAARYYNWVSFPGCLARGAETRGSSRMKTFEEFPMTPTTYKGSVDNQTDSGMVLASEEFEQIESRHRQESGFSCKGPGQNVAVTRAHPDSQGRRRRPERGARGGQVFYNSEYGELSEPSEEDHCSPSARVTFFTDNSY

[8] = molecular target: Interleukin-1 receptor-associated kinase 1 (Homo sapiens) (UniProt P51617); test: Inhibition of recombinant human GST-tagged IRAK1 catalytic domain (194 to 712 residues) expressed in baculovirus expression system at 0.1 uM using Histone H3 (1-20) peptide as substrate incubated for 60 mins by Adapta assay relative to control
[9] = molecular target: Interleukin-1 receptor-associated kinase 4 (Homo sapiens) (UniProt Q9NWZ3); test: Inhibition of recombinant full length human His-tagged IRAK4 expressed in baculovirus expression system at 0.1 uM using serine/threonine-7 peptide as substrate incubated for 60 mins by Z'-LYTE assay relative to control
Sequence of Interleukin-1 receptor-associated kinase 4 (Homo sapiens) (Q9NWZ3 whole entry): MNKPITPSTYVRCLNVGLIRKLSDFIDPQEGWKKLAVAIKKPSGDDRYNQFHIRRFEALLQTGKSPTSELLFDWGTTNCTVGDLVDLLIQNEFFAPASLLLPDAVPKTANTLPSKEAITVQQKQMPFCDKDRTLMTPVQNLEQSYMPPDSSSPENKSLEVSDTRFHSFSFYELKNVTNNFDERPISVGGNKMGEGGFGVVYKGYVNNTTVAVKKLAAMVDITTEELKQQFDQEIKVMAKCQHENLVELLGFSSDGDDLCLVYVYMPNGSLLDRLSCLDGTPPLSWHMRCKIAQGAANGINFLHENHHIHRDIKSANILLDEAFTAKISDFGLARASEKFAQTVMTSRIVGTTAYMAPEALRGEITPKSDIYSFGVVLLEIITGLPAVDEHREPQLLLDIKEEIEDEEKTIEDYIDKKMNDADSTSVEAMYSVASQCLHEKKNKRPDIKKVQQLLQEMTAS

[10] = molecular target: Tyrosine-protein kinase ITK/TSK (Homo sapiens) (UniProt Q08881); test: Inhibition of recombinant full length human GST-tagged ITK expressed in baculovirus expression system at 0.1 uM using tyrosine-1 peptide as substrate incubated for 60 mins by Z'-LYTE assay relative to control
Sequence of Tyrosine-protein kinase ITK/TSK (Homo sapiens) (Q08881 whole entry): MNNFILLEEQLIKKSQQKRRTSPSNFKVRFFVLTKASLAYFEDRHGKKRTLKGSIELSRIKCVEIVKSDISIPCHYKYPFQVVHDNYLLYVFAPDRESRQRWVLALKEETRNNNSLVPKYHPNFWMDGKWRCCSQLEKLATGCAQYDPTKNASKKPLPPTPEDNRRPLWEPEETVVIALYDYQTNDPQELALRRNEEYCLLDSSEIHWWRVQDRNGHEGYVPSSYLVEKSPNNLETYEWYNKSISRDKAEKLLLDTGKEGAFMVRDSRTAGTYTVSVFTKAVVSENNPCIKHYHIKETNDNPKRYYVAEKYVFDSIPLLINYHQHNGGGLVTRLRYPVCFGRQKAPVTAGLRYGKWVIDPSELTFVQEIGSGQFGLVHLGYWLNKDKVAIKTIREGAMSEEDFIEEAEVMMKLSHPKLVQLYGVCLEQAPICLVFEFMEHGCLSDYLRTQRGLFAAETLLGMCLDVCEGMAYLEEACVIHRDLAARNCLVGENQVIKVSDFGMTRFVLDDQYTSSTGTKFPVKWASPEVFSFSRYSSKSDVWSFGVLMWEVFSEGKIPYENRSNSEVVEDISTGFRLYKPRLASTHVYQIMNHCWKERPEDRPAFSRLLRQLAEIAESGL

[11] = molecular target: Mitogen-activated protein kinase 10 (Homo sapiens) (UniProt P53779); test: Inhibition of recombinant full length human GST-tagged JNK3 expressed in baculovirus expression system at 0.1 uM using serine/threonine-4 peptide as substrate incubated for 60 mins by Z'-LYTE assay relative to control
[12] = molecular target: Mitogen-activated protein kinase kinase kinase kinase 4 (Homo sapiens) (UniProt O95819); test: Inhibition of recombinant human GST-tagged MAP4K4 catalytic domain (1 to 328 residues) expressed in baculovirus expression system at 0.1 uM using serine/threonine-7 peptide as substrate incubated for 60 mins by Z'-LYTE assay relative to control
[13] = molecular target: MAP/microtubule affinity-regulating kinase 3 (Homo sapiens) (UniProt P27448); test: Inhibition of recombinant full length human GST-tagged MARK3 expressed in baculovirus expression system at 0.1 uM using serine/threonine-25 peptide as substrate incubated for 60 mins by Z'-LYTE assay relative to control
[14] = molecular target: Dual specificity mitogen-activated protein kinase kinase 1 (Homo sapiens) (UniProt Q02750); test: Inhibition of recombinant full length human His-tagged MEK1 expressed in baculovirus expression system at 0.1 uM using serine/threonine-3 peptide as substrate incubated for 60 mins by Z'-LYTE assay relative to control
Sequence of Dual specificity mitogen-activated protein kinase kinase 1 (Homo sapiens) (Q02750 whole entry): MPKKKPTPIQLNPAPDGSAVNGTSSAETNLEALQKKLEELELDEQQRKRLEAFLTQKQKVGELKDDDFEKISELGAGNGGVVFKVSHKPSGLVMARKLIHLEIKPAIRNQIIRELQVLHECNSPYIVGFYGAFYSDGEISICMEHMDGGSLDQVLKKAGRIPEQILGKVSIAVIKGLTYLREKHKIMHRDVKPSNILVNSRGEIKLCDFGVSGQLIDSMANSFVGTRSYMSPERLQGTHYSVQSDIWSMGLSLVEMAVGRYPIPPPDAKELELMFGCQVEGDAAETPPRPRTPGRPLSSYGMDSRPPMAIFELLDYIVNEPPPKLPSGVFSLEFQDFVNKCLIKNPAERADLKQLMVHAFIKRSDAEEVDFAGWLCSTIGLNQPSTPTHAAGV

[15] = molecular target: Dual specificity mitogen-activated protein kinase kinase 6 (Homo sapiens) (UniProt P52564); test: Inhibition of recombinant full length human His-tagged MKK6 expressed in baculovirus expression system at 0.1 uM using serine/threonine-3 peptide as substrate incubated for 60 mins by Z'-LYTE assay relative to control
[16] = molecular target: MAP kinase-interacting serine/threonine-protein kinase 1 (Homo sapiens) (UniProt Q9BUB5); test: Inhibition of recombinant full length human GST-tagged MKNK1 expressed in insect expression system at 0.1 uM using serine/threonine-7 peptide as substrate incubated for 60 mins by Z'-LYTE assay relative to control
[17] = molecular target: Protein kinase C eta type (Homo sapiens) (UniProt P24723); test: Inhibition of recombinant full length human His-tagged PKCeta expressed in baculovirus expression system at 0.1 uM using serine/threonine-7 peptide as substrate incubated for 60 mins by Z'-LYTE assay relative to control
Sequence of Protein kinase C eta type (Homo sapiens) (P24723 whole entry, the tested form may be a part): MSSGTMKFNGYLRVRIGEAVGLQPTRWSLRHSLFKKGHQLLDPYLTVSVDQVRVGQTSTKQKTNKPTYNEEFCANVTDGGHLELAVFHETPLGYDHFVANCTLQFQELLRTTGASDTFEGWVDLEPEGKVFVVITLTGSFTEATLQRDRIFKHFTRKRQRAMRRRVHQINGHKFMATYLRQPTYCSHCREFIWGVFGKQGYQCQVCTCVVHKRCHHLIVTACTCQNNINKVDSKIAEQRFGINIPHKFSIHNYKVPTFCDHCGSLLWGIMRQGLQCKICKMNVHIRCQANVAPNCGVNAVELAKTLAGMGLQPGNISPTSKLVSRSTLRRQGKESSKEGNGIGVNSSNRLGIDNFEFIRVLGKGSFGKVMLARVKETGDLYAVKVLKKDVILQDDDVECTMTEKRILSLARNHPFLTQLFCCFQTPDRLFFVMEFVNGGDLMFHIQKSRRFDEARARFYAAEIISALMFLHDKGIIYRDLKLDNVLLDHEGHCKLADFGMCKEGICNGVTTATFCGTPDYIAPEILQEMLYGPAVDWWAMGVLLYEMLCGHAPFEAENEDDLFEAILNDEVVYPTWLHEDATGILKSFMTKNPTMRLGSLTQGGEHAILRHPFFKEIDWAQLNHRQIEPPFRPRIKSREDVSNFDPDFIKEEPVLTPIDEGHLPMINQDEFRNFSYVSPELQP

[18] = molecular target: Serine/threonine-protein kinase PLK3 (Homo sapiens) (UniProt Q9H4B4); test: Inhibition of recombinant human GST-tagged PLK3 catalytic domain (58 to 340 residues) expressed in baculovirus expression system at 0.1 uM using serine/threonine-16 peptide as substrate incubated for 60 mins by Z'-LYTE assay relative to control
[19] = molecular target: Serine/threonine-protein kinase Sgk1 (Homo sapiens) (UniProt O00141); test: Inhibition of recombinant human GST-tagged SGK1 catalytic domain (60 to 431 residues) expressed in baculovirus expression system at 0.1 uM using serine/threonine-6 peptide as substrate incubated for 60 mins by Z'-LYTE assay relative to control
Sequence of Serine/threonine-protein kinase Sgk1 (Homo sapiens) (O00141 whole entry, the tested form may be a part): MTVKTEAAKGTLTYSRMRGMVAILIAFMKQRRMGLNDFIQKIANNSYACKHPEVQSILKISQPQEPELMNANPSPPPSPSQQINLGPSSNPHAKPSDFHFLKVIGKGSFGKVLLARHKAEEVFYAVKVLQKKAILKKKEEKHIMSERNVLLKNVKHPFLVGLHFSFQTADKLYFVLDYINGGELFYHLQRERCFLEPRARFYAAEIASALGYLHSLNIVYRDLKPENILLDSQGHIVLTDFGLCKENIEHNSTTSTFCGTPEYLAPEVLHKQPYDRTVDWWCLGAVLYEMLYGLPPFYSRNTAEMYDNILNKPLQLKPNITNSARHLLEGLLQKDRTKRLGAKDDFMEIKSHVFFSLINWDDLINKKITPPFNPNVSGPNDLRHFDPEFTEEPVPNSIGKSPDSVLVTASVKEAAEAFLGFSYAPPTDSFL

[20] = molecular target: Activated CDC42 kinase 1 (Homo sapiens) (UniProt Q07912); test: Inhibition of tracer 236 binding to recombinant human GST-tagged TNK2 catalytic domain (110 to 476 residues) expressed in baculovirus expression system at 0.1 uM measured after 60 mins by Lanthascreen assay
Sequence of Activated CDC42 kinase 1 (Homo sapiens) (Q07912 whole entry, looked up, the tested form may be a part): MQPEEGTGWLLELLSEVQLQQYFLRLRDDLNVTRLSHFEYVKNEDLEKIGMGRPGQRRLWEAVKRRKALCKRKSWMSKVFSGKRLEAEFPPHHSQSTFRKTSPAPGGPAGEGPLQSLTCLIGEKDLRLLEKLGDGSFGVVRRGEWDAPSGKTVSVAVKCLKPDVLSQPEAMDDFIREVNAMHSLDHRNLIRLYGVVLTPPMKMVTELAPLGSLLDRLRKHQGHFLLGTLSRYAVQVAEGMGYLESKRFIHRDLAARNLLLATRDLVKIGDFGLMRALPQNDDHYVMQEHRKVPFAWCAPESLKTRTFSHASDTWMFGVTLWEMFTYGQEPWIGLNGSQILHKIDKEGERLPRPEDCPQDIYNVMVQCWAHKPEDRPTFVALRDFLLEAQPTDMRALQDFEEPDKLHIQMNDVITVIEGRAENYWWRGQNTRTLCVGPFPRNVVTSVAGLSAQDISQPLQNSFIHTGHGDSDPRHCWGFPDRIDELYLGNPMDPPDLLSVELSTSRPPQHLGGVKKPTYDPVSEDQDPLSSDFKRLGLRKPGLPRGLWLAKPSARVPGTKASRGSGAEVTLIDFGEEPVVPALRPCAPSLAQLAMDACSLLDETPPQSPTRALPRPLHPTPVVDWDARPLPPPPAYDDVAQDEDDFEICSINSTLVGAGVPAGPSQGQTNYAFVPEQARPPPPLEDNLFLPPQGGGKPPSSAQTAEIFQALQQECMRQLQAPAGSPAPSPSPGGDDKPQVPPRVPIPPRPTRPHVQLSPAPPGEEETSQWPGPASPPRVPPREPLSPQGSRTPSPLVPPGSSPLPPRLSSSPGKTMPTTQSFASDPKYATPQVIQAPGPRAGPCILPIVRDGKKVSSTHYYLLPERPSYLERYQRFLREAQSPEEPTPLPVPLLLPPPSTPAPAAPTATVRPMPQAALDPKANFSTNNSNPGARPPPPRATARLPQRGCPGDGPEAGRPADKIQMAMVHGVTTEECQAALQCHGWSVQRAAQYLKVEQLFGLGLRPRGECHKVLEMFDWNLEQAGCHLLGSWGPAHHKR

[21] = molecular target: Testis-specific serine/threonine-protein kinase 1 (Homo sapiens) (UniProt Q9BXA7); test: Inhibition of recombinant full length human His-tagged TSSK1 expressed in baculovirus expression system at 0.1 uM using serine/threonine-4 peptide as substrate incubated for 60 mins by Z'-LYTE assay relative to control
[22] = molecular target: Angiopoietin-1 receptor (Homo sapiens) (UniProt Q02763); test: Inhibition of recombinant human GST-tagged TIE2 (817 to 1101 residues) expressed in baculovirus expression system at 0.1 uM using tyrosine-5 peptide as substrate incubated for 60 mins by Z'-LYTE assay relative to control
[23] = molecular target: Tyrosine-protein kinase Yes (Homo sapiens) (UniProt P07947); test: Inhibition of recombinant full length human GST-tagged YES expressed in baculovirus expression system at 0.1 uM using tyrosine-2 peptide as substrate incubated for 60 mins by Z'-LYTE assay relative to control

## CCN1CCN(Cc2ccc(Nc3ncc(F)c(-c4cc(F)c5nc(C)n(C(C)C)c5c4)n3)nc2)CC1 [ABEMACICLIB]
[1]
  inhibition: -2%
[2]
  inhibition: 22.7%
[3]
  inhibition: 1.5%
[4]
  inhibition: 60.8%
[5]
  inhibition: 97.7%
[6]
  inhibition: 35.5%
[7]
  inhibition: 4%
[8]
  inhibition: 99.8%
[9]
  inhibition: 9%
[10]
  inhibition: 0.5%
[11]
  inhibition: 59.1%
[12]
  inhibition: 89.5%
[13]
  inhibition: 16%
[14]
  inhibition: 4.7%
[15]
  inhibition: 14.3%
[16]
  inhibition: 27%
[17]
  inhibition: 35%
[18]
  inhibition: -3.5%
[19]
  inhibition: 64%
[20]
  inhibition: 2.4%
[21]
  inhibition: 21.5%
[22]
  inhibition: -2%
[23]
  inhibition: 9%

## CCN1CC2(C1)CN(c1ccc(Nc3ncc(F)c(-c4cnn5c4[C@H](C)CCCC5)n3)nc1)C2
[1]
  inhibition: -4%
[2]
  inhibition: 92%
[3]
  inhibition: 3.5%
[4]
  inhibition: 72%
[5]
  inhibition: 95%
[6]
  inhibition: 59%
[7]
  inhibition: 19%
[8]
  inhibition: 48.5%
[9]
  inhibition: 3.5%
[10]
  inhibition: 6%
[11]
  inhibition: 66.5%
[12]
  inhibition: 39%
[13]
  inhibition: 15%
[14]
  inhibition: 20.5%
[15]
  inhibition: 0%
[16]
  inhibition: 18%
[17]
  inhibition: 15.5%
[18]
  inhibition: 7.5%
[19]
  inhibition: 72.5%
[20]
  inhibition: 5%
[21]
  inhibition: 67.5%
[22]
  inhibition: -0.5%
[23]
  inhibition: 8.5%

Source: ChEMBL document CHEMBL4385643, “Design of a brain-penetrant CDK4/6 inhibitor for glioblastoma” (Bioorg Med Chem Lett, 2019)
